Measurements as given in patent US20070105879A1 (HALEX ISTAR INDUSTRIA FARMACEUTICA LTDA., priority 2003, published 2007).
Structures can show the parent of a compound that is named as a salt. Where two headings read alike, the source gives them in different places.

Assays:
[1] = sodium salt / reconstituted state-of-the-art solution, cited from earlier work
[2] = cited from earlier work
cytomegalovirus = details: drug derived from acyclovir, U.S. Pat. No. 4,355,032; cited from earlier work
[3] = pH and appearance of ganciclovir solutions; assay type: physicochemical; details: glucose solution, formulation tests
Excerpt: The earlier tests were tried with the 9-((1,3-dihydroxypropan-2-iloxy)methyl)-2-amine-1-purin-6(9H)-one molecule used for preparing the lyophilized product.
Stabilizing the molecule in this pH, allowed lowering hazards during manipulation, once the previous solution was too much alkaline (pH=11), and was too much irritating after its reconstitution being not possible to be in contact with the skin, mucous membranes and eyes. Using appropriate glasses and gloves were necessary when manipulating this substance.
Yes, but can cause irritation in the site of the injection due the elevate pH of the injectable solution (pH˜11). It also can be done by subcutaneous administration, but with the same local irritation risk.
Because the resulting solution is strongly alkaline (pH=11) and irritating after its reconstitution, one must avoid the contact with the skin, mucous membranes and the eyes. Using glasses and gloves are necessary when manipulating it.

## Nc1nc(O)c2ncn(COC(CO)CO)c2n1 [Ganciclovir sodium salt, 9-((1,3-dihydroxypropan-2-iloxy)methyl)-2-amine-1H-purin-6(9H)-one sodium salt]
[1]; listed as sodium Ganciclovir, sodium salt
  pH of solution: 11
[1]; sodium salt
  pH of solution: about 11
[2]; reconstituted with sterile water for injection, diluted with sodium chloride 0.9% in PVC bags, refrigeration at 5° C.
  physically and chemically stable (time): 14 days

## Nc1nc2c(ncn2COC(CO)CO)c(=O)[nH]1 [Ganciclovir, 9-((1,3-dihydroxypropan-2-iloxy)methyl)-2-amine-1H-purin-6(9H)-one]
cytomegalovirus
  activity against cytomegalovirus, times greater: 100 times
[3]
  appearance of solution: yellowish and oxidized solution
[1]
  pH of solution: 11
[2]; room temperature, reconstituted inside its own vial
  Stability (time): 12 h
